Test results as given in patent US5656588A, “Wound healing formula” (Wake Forest University, priority 1994, dated 1997).
“Also recorded” adds a separate entry of the source. Like-named read-outs stand apart in the source and are kept apart here.

What was measured:
wound healing [1] = conditions: supplementation of the diet, animals and humans; cited from earlier work
wound healing [2] = test: Wound strength (abdominal bursting strength) in animals given carnosine or histidine following surgery; assay type: in vivo; conditions: supplement to a complete diet, mammals not nutritionally deprived
Source text: Pursuant to the present invention, therapeutically effective amounts of carnosine are supplemented with a complete diet. […] Previous studies in this area have advocated that the wound healing effects can be achieved with histamine or histidine. […] Table 2 illustrates comparative results between carnosine and histidine administered to animals following surgery.

[3] = test system: gastric and duodenal ulcers; conditions: food deprived rats; cited from earlier work

In the case of `N=C(N)NCCC[C@H](N)C(=O)O` [arginine], the “Effect on wound healing (in words)” value (wound healing [1]) is given as “improves wound healing”.
In the case of `NCCC(=O)N[C@@H](Cc1c[nH]cn1)C(=O)O` [carnosine, β-alanyl-histidine], the “Effect on wound healing (in words)” value (wound healing [2]) is reported as “improves wound healing; also recorded: more effective in stimulating wound healing than histidine treatment”.
In the case of N-acetyl-L-carnosine aluminum, the “Protection against ulcer formation (in words)” value [3] is listed as “protects against the formation of gastric and duodenal ulcers”.
